Laboratory results published in patent US20160113890A1, “COMPOSITION FOR STIMULATING NEOVASCULARIZATION AT A SITE IN A SUBJECT COMPRISING DAPSONE AND USE THEREOF” (Samsung Electronics Co., Ltd., priority 2014, published 2016).

Assays:
C57BL/6 mice [1] = experiment: Fluorescein-lectin tracking and immunohistochemical assay on pancreas section; type: in vivo, mouse; conditions: old mice, 2.0 mg/kg/d for 3 months
Protocol: (§1) C57BL/6 mice (hereinafter, also referred to as “B6”) at ages of 7 months and 24 months (female n=18, male n=12, Korean Basic Science Institute) were maintained according to the guideline of the Laboratory Animal Research Center of Sungkyunkwan University School of Medicine. The mice were allowed to have free access to water and feed. Each group of mice (n=5) drank 0.0, 0.5, or 2.0 mg/kg/day of dapsone (available from Tai Guk Pharm. Co.) for 3 months.
(§2) After 3 months, ear skin from both ears, trachea, both retinas, both kidneys, and pancreas were obtained from a mouse selected from each group of mice. In order to obtain these organs, the mouse was anesthetized by intraperitoneal injection of 100 mg/kg of […] (Entobal®) based on the weight of the mouse, […] of 1% paraformaldehyde was flowed through the heart to remove the blood in the body of the mouse. The organs were surgically obtained, and tissue from each of the organs was fixed in 4% of paraformaldehyde for 24 hours to prepare a frozen section having a thickness of 10 um. Immunofluorescence staining using anti-PECAM-1 antibody was performed on a sample of the frozen section. […] The measured fluorescent density denotes a density of endothelial cells, that is, blood vessels. […]

C57BL/6 mice [2] = experiment: Immunohistochemical assay (anti-PECAM-1) on mouse ear skin whole-mount; type: in vivo
Protocol: as §1
as §2, with “section. For the immunofluorescence staining, the sample was blocked in a solution containing 5% donkey serum in phosphate buffered solution (PBS) containing 0.3% Triton-X 100 (0.3% PBST) for 1 hour. The anti-PECAM-1 antibody produced from American hamster was added to the solution to allow a primary reaction with antigen of the tissue at 4° C. for 12 hours. The sample was washed 6 times for 10 minutes with 0.3% PBS-T, and an anti-American hamster-Alexa594 antibody was added to 0.3 PBS-T to allow a secondary reaction with the anti-PECAM-1 antibody at 4° C. for 12 hours. The sample was washed 6 times for 10 minutes, attached to a slide glass, and thus image of the stained sample was obtained by a Carl Zeiss LSM710 confocal microscope.” for “section.”

C57BL/6 mice [3] = experiment: Immunohistochemical assay (anti-PECAM-1) on trachea whole-mount of mouse; type: in vivo
Protocol: as §1
After 3 months, ear skin from both ears, trachea, both retinas, both kidneys, and pancreas were obtained from a mouse selected from each group of mice. In order to obtain these organs, the mouse was anesthetized by intraperitoneal injection of 100 mg/kg of […] (Entobal®) based on the weight of the mouse, […] of 1% paraformaldehyde was flowed through the heart to remove the blood in the body of the mouse. The organs were surgically obtained, and tissue from each of the organs was fixed in 4% of paraformaldehyde for 24 hours to prepare a frozen section having a thickness of 10 um. Immunofluorescence staining using anti-PECAM-1 antibody was performed on a sample of the frozen section. For the immunofluorescence staining, the sample was blocked in a solution containing 5% donkey serum in phosphate buffered solution (PBS) containing 0.3% Triton-X 100 (0.3% PBST) for 1 hour. The anti-PECAM-1 antibody produced from American hamster was added to the solution to allow a primary reaction with antigen of the tissue at 4° C. for 12 hours. The sample was washed 6 times for 10 minutes with 0.3% PBS-T, and an anti-American hamster-Alexa594 antibody was added to 0.3 PBS-T to allow a secondary reaction with the anti-PECAM-1 antibody at 4° C. for 12 hours. The sample was washed 6 times for 10 minutes, attached to a slide glass, and thus image of the stained sample was obtained by a Carl Zeiss LSM710 confocal microscope. Each of the images was sequentially taken with respect to the tissue having a thickness in a range of about 100 um to about 300 um as an axis, and then all the sub-images were projected in a z-axis direction. Thus the image is a projection image. Platelet endothelial cell adhesion molecule (PECAM-1) is also referred to as cluster of differentiation 31 (CD31), which is found in platelets or monocytes and on a surface of some types of T-cells, and constitutes most of endothelial cell intercellular junction. […] The measured fluorescent density denotes a density of endothelial cells, that is, blood vessels. Also, in terms of kidney tissue sections and pancreas tissue section, Fluorescein labeled Lycopersicon esculentum (tomato) lectin (hereinafter, also referred to as “Fluorescein-lectin”) was used as a tracer to verify blood vessel functionality of the sample. […]

VEGF = experiment: Microarray analysis of gene expression in soleus muscle (VEGF); type: in vivo, mouse; conditions: middle (15 month-old) and old (20 month-old) mice, 2.0 mg/kg/d for 3 months
Protocol: (§3) In FIG. 9, a vertical axis denotes an expression amount of VEGF or Tie2 gene (fluorescent intensity: arbitrary unit), and a horizontal axis denotes a mouse subject. […] The microarray analysis was performed by using Agilent's Mouse Oligo Microarray (44K, Agilent Technology). 5 months-old, 15 months-old, and 20 months-old C57BL/6J mice had 2 mg/kg/d of dapsone for 3 months. […] After the 3 months, the 8 months-old, 18 months-old, and 23 months-old mice were anesthetized by injecting Entobar (sodium pentobarbital, 100 mg/kg per body weight), and then soleus muscle taken therefrom for microarray analysis was frozen. Ribonucleic acid was isolated from the muscle and used for the microarray analysis.

C57BL/6 mice [4] = experiment: Fluorescein-lectin tracking and immunohistochemical assay on kidney section; type: in vivo, mouse; conditions: old mice, 2.0 mg/kg/d for 3 months
Protocol: as §1, §2

VEGFR2 = experiment: Phosphorylation-specific antibody array of soleus muscle protein; type: in vivo, mouse; conditions: 20 month-old C57BL/6J mice, 2.0 mg/kg/d for 3 months
Protocol: In FIG. 10, a vertical axis denotes the amount of protein expressed in the experimental group compared to the control group (fluorescent intensity: arbitrary unit), and a horizontal axis denotes the type of phosphorylated protein measured, where the description in parentheses informs residue and location of the phosphorylated amino acid. […] The microarray analysis was performed by using a Phospho Explorer Antibody array (1312 antibodies, FULL MOON Biosystems), soleus muscle of the mice was obtained, protein was isolated therefrom, and used for the microarray analysis. In FIG. 10, p-VR1 and p-VR2 respectively denote phosphorylated VEGFR1 and VEGFR2.

Tie2 = experiment: Microarray analysis of gene expression in soleus muscle (Tie2); type: in vivo, mouse; conditions: middle (15 month-old) and old (20 month-old) mice, 2.0 mg/kg/d for 3 months
Protocol: as §3

[5] = old mice (27 months-old), 2.0 mg/kg/d for 3 months (O2 vs O0)

Structure (SMILES): Nc1ccc(S(=O)(=O)c2ccc(N)cc2)cc1 [dapsone, 4-[(4-aminobenzene)sulfonyl]aniline]
- amount of blood vessels with decreased functionality (Fluorescein-lectin negative) (C57BL/6 mice [1]): reduced
- blood vessel density (PECAM-1 Alexa 594 fluorescence intensity) vs control group (C57BL/6 mice [2]; [5]): significant difference
- blood vessel density (PECAM-1 Alexa 594 fluorescence intensity) vs control group (C57BL/6 mice [2]; young mice (7 months-old), 0.5 mg/kg/d for 3 months (Y0.5 vs Y0)): no significant difference
- blood vessel density (PECAM-1 Alexa 594 fluorescence intensity) vs control group (C57BL/6 mice [2]; young mice (7 months-old), 2.0 mg/kg/d for 3 months (Y2 vs Y0)): no significant difference
- blood vessel density (PECAM-1 Alexa 594 fluorescence intensity) vs control group (C57BL/6 mice [3]; old mice (27 months-old), 0.5 mg/kg/d for 3 months (O0.5 vs O0)): significant difference
- blood vessel density (PECAM-1 Alexa 594 fluorescence intensity) vs control group (C57BL/6 mice [3]; [5]): significant difference
- blood vessel density (PECAM-1 Alexa 594 fluorescence intensity) vs control group (C57BL/6 mice [3]; young mice (7 months-old), 0.5 mg/kg/d in drinking water for 3 months (Y0.5 vs Y0)): no significant difference
- blood vessel density (PECAM-1 Alexa 594 fluorescence intensity) vs control group (C57BL/6 mice [3]; young mice (7 months-old), 2.0 mg/kg/d in drinking water for 3 months (Y2 vs Y0)): no significant difference
- expression of VEGF gene vs control groups (VEGF): increased
- blood vessel functionality (Fluorescein-lectin perfusion of PECAM-1 positive vessels) (C57BL/6 mice [4]): recovered to the similar level of the control group
- phosphorylation of VEGFR2 at T1175, T1059 and T1054 vs control group (VEGFR2): significantly increased phosphorylation
- level of Tie2 gene expression vs control groups (Tie2): did not change significantly
